# Data as given in US4368203A, “Antibiotics and derivatives thereof having β-lactamase inhibitory activity and production thereof” (priority 1977, dated 1983).
# Read-outs that look alike come from different tables or passages of the source.
# Columns and labels:
# Enterobacter sp. E-8 = assay: MIC, broth dilution method; conditions: SP.E8, 20 h, read-out: Minimum inhibitory concentration
# Serratia marcescens S-18 [1] = assay: MIC, broth dilution method; conditions: S18, 20 h, read-out: Minimum inhibitory concentration
# [2] = test system: Bacillus subtilis ATCC 6633; assay: MIC, broth dilution method; conditions: ATCC6633, 20 h, read-out: Minimum inhibitory concentration
# [3] = test system: Staphylococcus aureus Bx-1633; assay: MIC, broth dilution method; conditions: BX1633, 20 h, read-out: Minimum inhibitory concentration
# [4] = test system: Staphylococcus aureus FDA 209P; assay: MIC, broth dilution method; assay type: cell-based; conditions: for MIC: Staphylococcus aureus, FDA209P, Table 7, no unit in the head, read-out: Minimum inhibitory concentration
# [5] = test system: Klebsiella pneumoniae K-2; assay: MIC, broth dilution method; conditions: for MIC: Klebsiella pneumoniae, K2, 20 h, read-out: Minimum inhibitory concentration
# [6] = test system: Streptococcus pyogenes NY-5; assay: MIC, broth dilution method; conditions: for MIC: Streptococcus pyogenes, NY5, 20 h, read-out: Minimum inhibitory concentration
# [7] = test system: Staphylococcus aureus Rassell; assay: MIC, broth dilution method; conditions: 20 h, read-out: Minimum inhibitory concentration
# [8] = test system: Enterobacter cloacae E-16; assay: MIC, broth dilution method; assay type: cell-based; conditions: for MIC: Enterobacter cloacae, read-out: Minimum inhibitory concentration
# Experimental: Sodium salt of the antibiotic PS-7 was dissolved and diluted with the BRAIN HEART INFUSION BROTH "Eiken" at a concentration between 5 μg/ml and 100 μg/ml. The solution was further diluted with the same medium to obtain a series of geometric concentrations. To the serial dilutions were added the seed cultures prepared by shaking culture of various test microorganisms shown in Tab. 5 in the BRAIN HEART INFUSION GROTH at 28° C. for 18 hours, the final cell count being about 1×10^5 /ml. […] The lowest concentration at which no cell growth was observed was the minimum inhibitory concentration of the antibiotic PS-7 on the test microorganism. […] The minimum inhibitory concentrations on test strains were determined in the same manner as mentioned above.
# [9] = test system: Staphylococcus aureus FDA 209P; assay: MIC, broth dilution method; assay type: cell-based; conditions: FDA209P, read-out: Minimum inhibitory concentration
# Experimental: (§1) Sodium salt of the antibiotic PS-7 was dissolved and diluted with the BRAIN HEART INFUSION BROTH "Eiken" at a concentration between 5 μg/ml and 100 μg/ml. The solution was further diluted with the same medium to obtain a series of geometric concentrations. To the serial dilutions were added the seed cultures prepared by shaking culture of various test microorganisms shown in Tab. 5 in the BRAIN HEART INFUSION GROTH at 28° C. for 18 hours, the final cell count being about 1×10^5 /ml. […] The lowest concentration at which no cell growth was observed was the minimum inhibitory concentration of the antibiotic PS-7 on the test microorganism. […] . The minimum inhibitory concentrations on test strains were determined in the same manner as mentioned above. […] For the comparison, the results on the known antibiotics Cephazolin and Cefoxitin are also given in the same table.
# [10] = test system: Alcaligenes faecalis B-326; assay: MIC, broth dilution method; assay type: cell-based; conditions: for MIC: Alcaligenes faecalis, read-out: Minimum inhibitory concentration
# Experimental: as §1
# [11] = test system: Diplococcus pneumoniae Type III; assay: MIC, broth dilution method; assay type: cell-based; conditions: Streptococcus pneumoniae, read-out: Minimum inhibitory concentration
# Experimental: as §1
# Citrobacter freundii E-9 [12] = assay: MIC, broth dilution method; assay type: cell-based; conditions: for MIC: Citrobacter freundii, read-out: Minimum inhibitory concentration
# Experimental: as §1
# [13] = test system: Diplococcus pneumoniae Type III; assay: MIC, broth dilution method; assay type: cell-based
# [14] = test system: Enterobacter aerogenes E-19; assay: MIC, broth dilution method; conditions: Klebsiella aerogenes, E19, 20 h, read-out: Minimum inhibitory concentration
# [15] = test system: β-lactamase-producing, β-lactam-resistant bacteria; assay: Increase of the antibiotic activity of other antibiotics (summary in words); assay type: cell-based; conditions: β-lactamase-producing bacteria such as Proteus vulgaris, Serratia marcescens
# Experimental: (§2) 10 ml of 2.5 folds diluted nutrient agar (pH 7.0) containing 50 μg/ml of penicillin G or cephaloridine was seeded with the β-lactamase producing and β-lactam-resistant microorganisms and poured in a 9 cm Petri dish to provide the bio-assay agar plate. […] A control assay plate was similarly prepared without penicillin G or cephaloridine. As reference antibiotics, 10,000 μg/ml of penicillin G or 20 μl of cephaloridine were disc-assayed under the same conditions.
# (§3) Cepholoridine was added to a 2.5-times diluted nutrient agar, pH 7.0 and the medium was inoculated with a β-lactam-producing strain that produceds β-lactamase. Ten ml of the medium was spread and solidified in a petri dish of 9 cm in diameter to prepare an assay plate. […] Each 20 μl of the solution and its 2- and 4-times diluted solutions was soaked in a pulp disc of 8 mm in diameter. To the surface of the above nutrient agar was placed the pulp disc and the size of the growth inhibitory zone around the disc was examined after incubation at 35° C. for 18 hours. […] In addition, for the comparison, a similar experiment was also performed with a pulp disk soaked with 20 μl of 10,000 μg/ml Penicillin G or Cepholoridine solution in place of the antibiotic PS-7.
# Proteus vulgaris P-5 [16] = assay: Potentiating and synergistic effect, pulp disc inhibition zone on agar plate; assay type: cell-based
# Experimental: as §2, §3
# Proteus vulgaris P-5 [17] = assay: MIC, broth dilution method; conditions: for MIC: Proteus vulgaris, P5, 20 h, read-out: Minimum inhibitory concentration
# Citrobacter freundii E-9 [18] = assay: Potentiating and synergistic effect, pulp disc inhibition zone on agar plate; assay type: cell-based
# Experimental: (§4) 10 ml of 2.5 folds diluted nutrient agar (pH 7.0) containing 50 μg/ml of penicillin G or cephaloridine was seeded with the β-lactamase producing and β-lactam-resistant microorganisms and poured in a 9 cm Petri dish to provide the bio-assay agar plate. On this assay plate, 8 mm of pulp discs each containing 20 μl of antibiotic PS-6 solution at the concentration of 240 μg/ml were placed and incubated at 35° C. for 18 hours before reading the inhibition zones. A control assay plate was similarly prepared without penicillin G or cephaloridine. As reference antibiotics, 10,000 μg/ml of penicillin G or 20 μl of cephaloridine were disc-assayed under the same conditions.
# Serratia marcescens S-18 [19] = assay: as above; assay type: cell-based
# Experimental: as §4
# Providencia sp. P-8 = assay: MIC, broth dilution method; conditions: SP.P8, 20 h, read-out: Minimum inhibitory concentration
# Proteus sp. P-22 = assay: MIC, broth dilution method; conditions: 20 h, read-out: Minimum inhibitory concentration
# Proteus mirabilis P-6 = assay: MIC, broth dilution method; conditions: P6, 20 h, read-out: Minimum inhibitory concentration
# Proteus rettgeri P-7 = assay: MIC, broth dilution method; conditions: Providencia rettgeri, P7, 20 h, read-out: Minimum inhibitory concentration
# [20] = E16, Table 7, no unit in the head, lactamase-producing strain
# [21] = B326, Table 7, no unit in the head
# [22] = E9, Table 7, no unit in the head, lactamase-producing strain
# [23] = Table 6, agar containing 50 μg/ml of cephaloridine, disc 20 μl, PS-6 240 μg/ml, reference antibiotics 10,000 μg/ml
# [24] = Table 6, agar containing 50 μg/ml of penicillin G, disc 20 μl, PS-6 240 μg/ml, reference antibiotics 10,000 μg/ml
# [25] = Table 9, lactamase producing organism
# [26] = Table 9, 10% of horse blood in the medium
smiles,measurement,setting,value
CO[C@@]1(NC(=O)Cc2cccs2)C(=O)N2C(C(=O)O)=C(COC(N)=O)CS[C@@H]21 [Cefoxitin],MIC,Enterobacter sp. E-8,12.5 µg/mL
same,MIC,Serratia marcescens S-18 [1],50 µg/mL
same,MIC,[2],1.25 µg/mL
same,MIC,[3],2.5 µg/mL
same,MIC,[4],2.5 µg/mL
same,MIC,[5],6.25 µg/mL
same,MIC,[6],1.25 µg/mL
same,MIC,[7],5 µg/mL
same,MIC,"[8]; E16, 20 h, Table 5, betalactamase producer",> 100 µg/mL
same,MIC,[8]; [20],> 100 µg/mL
same,MIC,"[9]; Table 5, 35° C. 20 hours",2.5 µg/mL
same,MIC,"[10]; B326, Table 5, 35° C. 20 hours",1.56 µg/mL
same,MIC,[10]; [21],1.56 µg/mL
same,MIC,"[11]; 20 h, Table 5, 10% horse blood supplemented into the medium",2.5 µg/mL
same,MIC,"Citrobacter freundii E-9 [12]; E9, 20 h, Table 5, betalactamase producer",> 100 µg/mL
same,MIC,Citrobacter freundii E-9 [12]; [22],> 100 µg/mL
same,MIC,"[13]; Streptococcus pneumoniae, Table 7, no unit in the head, horse serum in the medium at 10%, read-out: Minimum inhibitory concentration",2.5 µg/mL
same,MIC,[14],> 100 µg/mL
O=C(Cc1cccs1)N[C@@H]1C(=O)N2C(C(=O)[O-])=C(C[n+]3ccccc3)CS[C@H]12 [cephaloridine],Synergistic enhancement of the activity of penicillin G or cephaloridine (β-lactam antibiotics),[15],no synergistic effect
same,Synergistic enhancement of the activity of penicillin G or cephaloridine (β-lactam antibiotics),[15]; listed as Cephaloridine,No enhancement of antimicrobial activity
same,zone of inhibition at 10000 µg/mL,"Proteus vulgaris P-5 [16]; Proteus vulgaris, P5, 18 h, read-out: Diameter of inhibitory zone, No addition",12 mm
same,zone of inhibition at 240 µg/mL,"Proteus vulgaris P-5 [16]; Proteus vulgaris, P5, 18 h, read-out: Inhibition zone, Control",12 mm
same,"Inhibition zone, with cephaloridine",Proteus vulgaris P-5 [16]; [23],12.0 mm
same,"Inhibition zone, with penicillin G",Proteus vulgaris P-5 [16]; [24],12.0 mm
same,"Diameter of inhibitory zone, Cephaloridine-added","Proteus vulgaris P-5 [16]; Table 8, comparison disc 20 μl of 10,000 μg/ml, cephaloridine in the agar",12.0 mm
same,Minimum inhibitory concentration,"[4]; Table 9, ester dissolved in methanol, final methanol not above 10%",0.04 µg/mL
same,MIC,[5],20 µg/mL
same,Minimum inhibitory concentration,[5]; [25],20.0 µg/mL
same,MIC,[6],0.01 µg/mL
same,Minimum inhibitory concentration,[6]; [26],0.01 µg/mL
same,MIC,Proteus vulgaris P-5 [17],> 100 µg/mL
same,Minimum inhibitory concentration,Proteus vulgaris P-5 [17]; [25],> 100 µg/mL
same,MIC,"[8]; E16, 20 h",> 100 µg/mL
same,Minimum inhibitory concentration,[8]; [25],> 100 µg/mL
same,zone of inhibition at 240 µg/mL,"Citrobacter freundii E-9 [18]; Citrobacter freundii, E9, 18 h, read-out: Inhibition zone, Control",12 mm
same,"Inhibition zone, with cephaloridine",Citrobacter freundii E-9 [18]; [23],12.0 mm
same,"Inhibition zone, with penicillin G",Citrobacter freundii E-9 [18]; [24],12.0 mm
same,zone of inhibition at 240 µg/mL,"Serratia marcescens S-18 [19]; Serratia marcescens, S18, 18 h, read-out: Inhibition zone, Control",11 mm
same,"Inhibition zone, with cephaloridine",Serratia marcescens S-18 [19]; [23],11.0 mm
same,"Inhibition zone, with penicillin G",Serratia marcescens S-18 [19]; [24],11.0 mm
same,MIC,[9]; 20 h,0.04 µg/mL
same,MIC,"[10]; B326, 20 h",3.13 µg/mL
same,Minimum inhibitory concentration,[10]; Table 9,3.13 µg/mL
same,MIC,[11]; 20 h,0.01 µg/mL
same,MIC,"Citrobacter freundii E-9 [12]; E9, 20 h",> 100 µg/mL
same,Minimum inhibitory concentration,Citrobacter freundii E-9 [12]; [25],> 100 µg/mL
same,Minimum inhibitory concentration,[13]; [26],0.01 µg/mL
Cc1nnc(SCC2=C(C(=O)O)N3C(=O)[C@@H](NC(=O)Cn4cnnn4)[C@H]3SC2)s1 [Cefazorin],MIC,Providencia sp. P-8,50 µg/mL
same,MIC,Enterobacter sp. E-8,3.13 µg/mL
same,MIC,Serratia marcescens S-18 [1],> 100 µg/mL
same,MIC,[2],0.5 µg/mL
same,MIC,[3],0.5 µg/mL
same,MIC,[4],0.25 µg/mL
same,MIC,[5],6.25 µg/mL
same,MIC,[6],0.25 µg/mL
same,MIC,Proteus vulgaris P-5 [17],> 100 µg/mL
same,MIC,Proteus sp. P-22,> 100 µg/mL
same,MIC,[7],1 µg/mL
same,MIC,[8]; [20],> 100 µg/mL
same,MIC,Proteus mirabilis P-6,6.25 µg/mL
same,MIC,Proteus rettgeri P-7,25 µg/mL
same,MIC,"[9]; Table 5, 35° C. 20 hours",0.25 µg/mL
same,MIC,"[10]; B326, Table 5, 35° C. 20 hours",6.25 µg/mL
same,MIC,[10]; [21],6.25 µg/mL
same,MIC,[11]; 20 h,0.125 µg/mL
same,MIC,[11],0.125 µg/mL
same,MIC,"Citrobacter freundii E-9 [12]; E9, 20 h",> 100 µg/mL
same,MIC,Citrobacter freundii E-9 [12]; [22],> 100 µg/mL
same,MIC,[14],> 100 µg/mL
